Measured values taken from publication PMC12040169 (PLOS Biology, 2025).

Assay: in vitro
Conditions: human, hela cells, % viability

Point of comparison: CC(C)N(Cc1cccnc1)C(=O)Cn1c(C2CC2)nc2ccccc21 [CBK306156], viability at 28.5 h, 10 µM 104%. Against it:
- OC1(c2cccnc2)CCCN(Cc2ccccc2F)CC1 (stereo not shown) [CBK283009] — lower, 96.4%
- CC(=O)c1ccc(NC(=O)CSc2nnc(-c3ccncc3)s2)cc1 [CBK269183] — lower, 85.1%
- O=C(c1c[nH]c(C(=O)N2CCN(c3ccccn3)CC2)c1)c1ccc(Cl)cc1Cl [CBK107419] — lower, 86.5%
- Nc1cccc(-c2nccnc2NCCc2ccccn2)c1 [CBK037512] — lower, 102%
- O=C(O)c1ccc(N2CC(C(=O)Nc3ccc(F)cc3)CC2=O)cc1 (stereo not shown) [CBK286794] — lower, 85.3%
- CCOc1cc(C)c(C(C)C)cc1S(=O)(=O)NCCN1CCOCC1 [CBK268727] — higher, 110%
- COC(=O)c1cc(CN2CCCN(S(=O)(=O)c3ccc(-n4cnc(Cl)c4Cl)cc3)CC2)cn1C [CBK063080] — lower, 85.2%
- CC(=O)NC(Cc1c[nH]cn1)C(=O)O (stereo not shown) [CBK261105] — lower, 101%
- O=C(C1=C(O)C(=O)N(Cc2ccncc2)C1c1cccc(OCc2ccccc2)c1)c1cccs1 (stereo not shown) [CBK266247] — lower, 102%
- O=S(=O)(/N=C/N1CCCC1)c1ccccc1 [CBK023272] — lower, 89.4%
- COc1ccc(OCC(=O)N/N=C/c2ccc([N+](=O)[O-])s2)c(I)c1 [CBK261374] — lower, 93.1%
- O=[N+]([O-])c1ccc(C(O)CNC(=S)Nc2ccccc2)cc1 (stereo not shown) [CBK261086] — lower, 99.8%
- COCC1CCCN1C(=O)c1cnn2c(C)c(Cc3ccccc3)c(C)nc12 (stereo not shown) [CBK162213] — lower, 93.9%
- O=C(CSc1nnc(-c2ccccc2)n1-c1ccccc1)N/N=C/c1cccc2cccnc12 [CBK262863] — lower, 91%
- O=C(c1cccs1)n1nc(NCc2ccccc2)nc1NCc1ccccc1 [CBK269149] — higher, 107%
- Cc1ccccc1-c1ccccc1CC1(C(=O)N(C)C)CCN(C(=O)CC(C)C)CC1 [CBK285714] — lower, 93.6%
- Clc1ccc(-n2ncc(-c3cccnc3)n2)cc1Cl [CBK112814] — lower, 101%
- Cc1ccc(NC(=O)c2ccccc2)s1 [CBK086724] — lower, 95.2%
- Cc1cc(C)n(C)c(=O)c1C(=O)NCCCc1ccc(Cl)cc1 [CBK281566] — lower, 88.2%
- COc1ccc(CCn2cncc2-c2cnn(C)c2)cc1C [CBK281457] — higher, 107%
- O=C(NC(=S)Nc1ccc2[nH]c(=O)[nH]c2c1)c1ccc(F)cc1 [CBK263986] — lower, 89.3%
- CCNC(=O)N1CC2(CCN(Cc3nc4ccccc4[nH]3)CC2)c2ccccc21 [CBK126693] — lower, 98%
- Cc1ccc(C(=O)O/C(=C/c2nc3ccccc3n2Cc2cccc3ccccc23)c2ccc(C)cc2)cc1 [CBK262485] — higher, 108%
- COc1ccccc1C(=O)N1CCC(Cc2cccc(-c3cccs3)c2)(C(N)=O)CC1 [CBK285742] — lower, 99.8%
- NC(=O)CC1Nc2cccc3cccc(c23)NC1=O (stereo not shown) [CBK267560] — lower, 75%
- Cc1ccc2cc(CN(Cc3ccco3)S(C)(=O)=O)c(O)nc2c1 [CBK269409] — higher, 105%
- C/C(Cl)=C\CN1C(=O)C(=O)c2cc(C)ccc21 [CBK087601] — lower, 92.3%
- CCCCC(c1cccnc1)N(C)C(=O)c1cccn(C)c1=O (stereo not shown) [CBK307496] — higher, 114%
- FC(F)(F)c1cccc(NC(=S)Nc2ccc(Cc3ccncc3)cc2)c1 [CBK267251] — lower, 89.1%
- O=C(Nc1ccc(F)cc1F)Nc1cc(Cl)sc1Cl [CBK019967] — lower, 102%
- Cc1cc(C)c2[nH]c(C)c(CC(=O)N(C)CCN(C)C)c2c1 [CBK282731] — lower, 82.5%
- Cc1ccc(C(=O)N/C(=C\c2ccc3c(c2)OCO3)C(=O)NCC(=O)O)cc1 [CBK265669] — higher, 109%
- CN(C)CCN(C)C(=O)c1cc(Br)cnc1N(C)S(C)(=O)=O [CBK076476] — lower, 96.2%
- CCCCOc1ccc(OC(=O)COCCOCCN2C(=O)c3ccccc3C2=O)cc1 [CBK155584] — lower, 92.6%
- O=C1NC2(CCCN(C(=O)c3ccco3)C2)Nc2ccccc21 (stereo not shown) [CBK284803] — the same, 104%
- CN(C)S(=O)(=O)c1ccc(C(=O)Nc2cccc(N3Cc4ccccc4C3)c2)cc1 [CBK266025] — lower, 98.8%
- O=C(C[C@@H]1O[C@H](CNS(=O)(=O)c2ccccc2)[C@@H](O)[C@H]1O)N1CCc2ccccc21 [CBK288916] — lower, 91.2%
- Cc1ccnc(NCC2CCN(Cc3cc(=O)n4ccccc4n3)C2)c1 (stereo not shown) [CBK306003] — lower, 97.3%
- CN(C)C(=O)c1cc(Br)cnc1NCc1ccc2c(c1)OCO2 [CBK076293] — higher, 110%
- COC(=O)C1ON2CCCCC2C1(O)C(F)(F)F (stereo not shown) [CBK007430] — lower, 90.6%
- CC1CCCCN1CC(=O)Nc1ccccc1Oc1ccccc1 (stereo not shown) [CBK023182C] — lower, 95.1%
- Cc1ccc(NC(=O)CCN2C(=O)c3cccc([N+](=O)[O-])c3C2=O)c(Br)c1 [CBK263172] — lower, 98%
- Cn1nccc1CNc1ncn(CC(=O)N2CCCCCC2)n1 [CBK306454] — lower, 90%
- Cc1csc(NC(=O)CN2CCC(c3ccccc3F)CC2)n1 [CBK283569] — higher, 109%
- NCc1ccc(CN(Cc2ccc(-c3ccccc3)cc2)C(=O)Nc2ccccc2C(F)(F)F)cc1 [CBK046116C] — lower, 86.3%
- Cc1cccc(CSc2nc3ncccc3[nH]2)c1 [CBK287963] — lower, 96.9%
- Nc1nnc(C(F)(F)F)o1 [CBK023457] — higher, 113%
- CCn1c(SCC(=O)Nc2cc(C)ccc2F)nnc1-c1ccccc1O [CBK269532] — lower, 91.4%
- Cc1csc2c(N3CCSCC3)ncnc12 [CBK009169] — lower, 100%
- COc1ccc(C2=Nc3ccc(Br)cc3C(c3ccccc3)N2CC(=O)NN)cc1 (stereo not shown) [CBK263141] — lower, 95.8%
- COC(=O)c1ccccc1S(=O)(=O)Nc1nnn[nH]1 [CBK021321] — lower, 97.8%
- c1ccc2c(c1)OCC(c1nn3c(Cn4cnc5ccccc54)nnc3s1)O2 (stereo not shown) [CBK268436] — lower, 81.4%
- c1ccc2c(c1)OCC(COc1cncc(OC3CCN(CC4CCCCC4)C3)n1)O2 (stereo not shown) [CBK084387] — higher, 109%
- CC(=O)Nc1cccc(C(C)NC(=O)N(C)C2CCc3ccccc32)c1 (stereo not shown) [CBK306251] — lower, 102%
- Cn1ccnc1C1(O)C2CCCC1CN(Cc1ccc(F)c(F)c1)C2 (stereo not shown) [CBK285189] — lower, 95.1%
- O=C1Cc2cc3ccccc3cc2C2(CCN(C(=O)C3CCC3C(=O)O)CC2)N1 (stereo not shown) [CBK047252] — lower, 92.5%
- COc1ncc(-c2nccnc2OCc2cccs2)c(OC)n1 [CBK106750] — lower, 102%
- CCC(Oc1ccccc1)C(=O)Nc1cc(C)on1 (stereo not shown) [CBK288152] — lower, 101%
- CC(=O)N[C@@H](Cc1c[nH]cn1)C(=O)N1CC[C@H]2NC(=O)[C@H](Cc3ccccc3)NC(=O)C3(C/C=C/C[C@H]2C1)CCOCC3 [CBK292206] — higher, 116%
- CCC(NC1CCc2nc(COC)nn2C1)c1ccccc1O (stereo not shown) [CBK305132] — lower, 92.1%
- CCOC(=O)c1cnc(SCCc2ccccc2)nc1N [CBK085871] — lower, 88.1%
- CC1CCCCN1C(=O)c1cccc(Cn2cc(Br)c([N+](=O)[O-])n2)c1 (stereo not shown) [CBK058788] — the same, 104%
- Oc1cc(C(F)(F)F)nc(NCc2ccc3ccccc3c2)n1 [CBK003459] — lower, 92.2%
- Oc1ccc(/N=C/c2ccc(/C=N/c3ccc(O)cc3)cc2)cc1 [CBK261203] — lower, 98.5%
- CC(=O)Nc1ccc(S(=O)(=O)Nc2ccc(-c3csc(C)n3)cc2)cc1 [CBK266261] — lower, 85.7%
- Cc1ccccc1C(=O)NCC(=O)Nc1cc2ccccc2c(Br)n1 [CBK063298] — lower, 89.4%
- CCN(Cc1ccncc1)C(=O)NC(C)c1ccccc1 (stereo not shown) [CBK155156] — lower, 101%
- CN1CCC(N[C@H]2C[C@@H](Cc3cc(CCO)on3)C2(C)C)CC1 [CBK289253] — lower, 93.6%
- COc1ccc(S(=O)(=O)Nc2nc3c(s2)C(=O)CC(C)(C)C3)cc1 [CBK095611] — lower, 94.7%
- Cc1ccc(-c2nnc3c4ccccc4c(C)nn23)cc1S(=O)(=O)NC(C)c1ccccc1 (stereo not shown) [CBK266715] — lower, 94.5%
- Cc1nn(C)c(C)c1NC(=O)COc1ccc2c(c1)CCCC2=O [CBK304963] — lower, 98.5%
- OC1(C2CNc3ccccc3C2)CCNCC1 (stereo not shown) [CBK283847] — higher, 110%
- COCCc1ccccc1NC1CCN(c2nccs2)CC1 [CBK305476] — lower, 91.2%
- CC(=O)c1cc(C(=O)N2CCC(O)(c3ccccc3C)CC2)cs1 [CBK282532] — lower, 92.8%
- CC(C)NS(=O)(=O)c1ccc(NS(=O)(=O)c2cc(C(=O)O)ccc2Cl)cc1 [CBK296951] — lower, 99.5%
- Cc1ncc(C(=O)NC2(c3ccccc3F)CCCC2)c(C)n1 [CBK283274] — lower, 84.5%
- O=C(c1ccc2c(c1)C(=O)N(N1C(=O)c3ccccc3C1=O)C2=O)c1ccc2c(c1)C(=O)N(N1C(=O)c3ccccc3C1=O)C2=O [CBK261182] — lower, 96.4%
- Cc1cc(C)c2nc(-c3ccccn3)cc(C(=O)Nc3cccc(Cn4cccn4)c3)c2c1 [CBK267723] — lower, 90.4%
- CSc1nsc(SCC(=O)Nc2ccccc2C#N)n1 [CBK269826] — lower, 95.1%
- COc1cccc(CN2CCN(C(=O)Cc3cccs3)[C@@H](C)C2)c1 [CBK285487] — the same, 104%
- NS(=O)(=O)c1ccc(CCNC(=O)C2CC2)cc1 [CBK288407] — higher, 107%
- Cc1cccc(N=C(S)N(CCN(C)C)Cc2cc3cc(C)cc(C)c3nc2O)c1 [CBK135105] — lower, 96.2%
- Cc1noc(C)c1S(=O)(=O)NCC(=O)N1CCOCC1 [CBK034476] — lower, 94.9%
- S=c1[nH]nc(-c2ccco2)n1-c1ccc(Cl)cc1 [CBK023586] — lower, 97.8%
- CN(C)c1ccc(Nc2cc(-c3ccc(OCc4ccccc4)cc3)ncn2)cc1 [CBK090941] — higher, 113%
- O=C(Cc1csc2ccccc12)Nc1cnc(-c2ccc(F)cc2)c(-c2ccoc2)n1 [CBK037102] — lower, 93.3%
- O=C(O)Cn1c2ccccc2c2cc([N+](=O)[O-])ccc21 [CBK261732] — lower, 82.6%
